# How the values were obtained:
# STC-1 cells = conditions: exposure of STC-1 cells; cited from earlier work
# [1] = cited from earlier work
# [2] = cited from earlier work; remark: listed apart in the source
# [3] = Continuous subcutaneous infusion of GLP-1(7-36) amide for four weeks in NIDDM patients, preceded and followed by two weeks of intensive insulin therapy: body weight; assay type: in vivo, human; conditions: for body weight lost, average: four patients, mean±SEM
compound,measurement,setting,value
"CCCCCCCCCCCCCC(=O)O[C@@H]1[C@@H](C)[C@@]2(O)[C@@H](C=C(CO)C[C@]3(O)C(=O)C(C)=C[C@@H]23)[C@@H]2C(C)(C)[C@]12OC(C)=O [TPA, 12-O-tetradecanoylphorbol-13-acetate]",release of GLP-1,STC-1 cells,significant increases in release of GLP-1
GLP-1(7-36) amide,food intake,[1]; acute intraperitoneal administration in rats,does not affect food intake
same,early dark-phase feeding,"[1]; intraperitoneal administration, even at relatively high doses",does not affect early dark-phase feeding
same,food intake following injection of neuropeptide Y,"[2]; ICV, animals fed ad libitum",significantly reduces food intake
same,feeding,"[2]; intracerebroventricular route (ICV), fasted rats",markedly inhibits feeding
same,"body weight lost, average",[3]; during GLP-1 treatment (4 weeks),3.5 ± 1.2 kg
same,Weight Change,"[3]; mean±SEM of patients, GLP-1 infusion 1.2 pmol/kg/minute s.c., 4 weeks",-3.5 ± 1.2 kg
same,Patient Weight,"[3]; mean±SEM of patients, after GLP-1 infusion 1.2 pmol/kg/minute s.c., 4 weeks",92.9 ± 5.8 kg
same,Weight Change,"[3]; patient four, GLP-1 infusion 1.2 pmol/kg/minute s.c., 4 weeks",-3.0 kg
same,Patient Weight,"[3]; patient four, after GLP-1 infusion 1.2 pmol/kg/minute s.c., 4 weeks",108.0 kg
same,Weight Change,"[3]; patient one, GLP-1 infusion 1.2 pmol/kg/minute s.c., 4 weeks",-7.0 kg
same,Patient Weight,"[3]; patient one, after GLP-1 infusion 1.2 pmol/kg/minute s.c., 4 weeks",92.0 kg
same,Weight Change,"[3]; patient three, GLP-1 infusion 1.2 pmol/kg/minute s.c., 4 weeks",-1.9 kg
same,Patient Weight,"[3]; patient three, after GLP-1 infusion 1.2 pmol/kg/minute s.c., 4 weeks",80.0 kg
same,Weight Change,"[3]; patient two, GLP-1 infusion 1.2 pmol/kg/minute s.c., 4 weeks",-2.0 kg
same,Patient Weight,"[3]; patient two, after GLP-1 infusion 1.2 pmol/kg/minute s.c., 4 weeks",91.5 kg
same,effect on body weight,[3]; peripheral administration to obese patients,significant reduction in body weight
insulin,"body weight lost, average",[3]; first two weeks of intensive insulin treatment,1.3 ± 0.6 kg
same,Weight Change,"[3]; mean±SEM of patients (no data for MP), Second Insulin treatment, 2 weeks",+1.0 ± 1.0 kg
same,Patient Weight,"[3]; mean±SEM of patients (no data for MP), after Second Insulin treatment, 2 weeks",98.2 ± 5.0 kg
same,Weight Change,"[3]; mean±SEM of patients, First Insulin treatment, 2 weeks",-1.3 ± 0.6 kg
same,Patient Weight,"[3]; mean±SEM of patients, after First Insulin treatment, 2 weeks",96.4 ± 6.0 kg
same,Weight Change,"[3]; patient four, First Insulin treatment, 2 weeks",-2.0 kg
same,Weight Change,"[3]; patient four, Second Insulin treatment, 2 weeks",0.0 kg
same,Patient Weight,"[3]; patient four, after First Insulin treatment, 2 weeks",111.0 kg
same,Patient Weight,"[3]; patient four, after Second Insulin treatment, 2 weeks",108.0 kg
same,Weight Change,"[3]; patient one, First Insulin treatment, 2 weeks",-2.5 kg
same,Weight Change,"[3]; patient one, Second Insulin treatment, 2 weeks",3.0 kg
same,Patient Weight,"[3]; patient one, after First Insulin treatment, 2 weeks",99.0 kg
same,Patient Weight,"[3]; patient one, after Second Insulin treatment, 2 weeks",95.0 kg
same,Weight Change,"[3]; patient three, First Insulin treatment, 2 weeks",-0.1 kg
same,Patient Weight,"[3]; patient three, after First Insulin treatment, 2 weeks",81.9 kg
same,Weight Change,"[3]; patient two, First Insulin treatment, 2 weeks",-0.5 kg
same,Weight Change,"[3]; patient two, Second Insulin treatment, 2 weeks",0.0 kg
same,Patient Weight,"[3]; patient two, after First Insulin treatment, 2 weeks",93.5 kg
same,Patient Weight,"[3]; patient two, after Second Insulin treatment, 2 weeks",91.5 kg
same,"body weight change, on average",[3]; second two weeks of intensive insulin treatment,gained weight

# — patent publication US7211557B2, “Use of GLP-1 analogs and derivatives administered peripherally in regulation of obesity” (Eli Lilly and Company, priority 1996, dated 2007)
